Measurements from patent publication US10988743B2, “Coryneform bacterial transformant and method for producing 4-aminobenzoic acid or salt thereof using same” (RESEARCH INSTITUTE OF INNOVATIVE TECHNOLOGY FOR THE EARTH, priority 2016, dated 2021).
“Also recorded” adds a separate entry of the source.

Experiments:
Type in all cases: cell-based
[1] = test system: Saccharomyces cerevisiae W303; experiment: Growth inhibition by para-aminobenzoic acid in aerobic culture (OD610); conditions: aerobic shaking culture 30° C.
Procedure: (§1) Experiments about growth inhibition by para-aminobenzoic acid in aerobic culture were carried out, regarding Corynebacterium glutamicum, Escherichia coli, Streptomyces lividans, Pseudomonas putida, and Saccharomyces cerevisiae. No example of Pseudomonas putida S12 used in the present experiment has been reported to be a para-aminobenzoic acid producing host, but it was used as a comparative example, since it has been reported to be a solvent resistant bacterium and could be considered to have excellent resistance to para-aminobenzoic acid.
Saccharomyces cerevisiae W303 was applied to YEPD-agar plate [containing 2% polypeptone, 1% yeast extract, 2% glucose, and 1.5% agar] and was incubated at 30° C. for 20 hours in a dark place. Saccharomyces cerevisiae grown on the plate described above was inoculated in the YEPD-liquid medium [containing 2% polypeptone, 1% yeast extract, and 2% glucose], and aerobic shaking culture was carried out at 30° C. for 13 hours. Saccharomyces cerevisiae grown under the above-described conditions was inoculated in 100 ml of YEPD-liquid medium so that the initial bacterial cell concentration OD610=0.05. […] The growth of bacterial cells was determined by measuring OD610.
(§2) How the addition of para-aminobenzoic acid to medium influenced aerobic growth was analyzed, and the results are shown in FIG. 1.

Pseudomonas putida S12 = experiment: as above
Procedure: as §1
Pseudomonas putida S12 was applied to the LB-agar plate, and was incubated at 30° C. for 15 hours in a dark place. Pseudomonas putida grown on the plate described above was inoculated in the LB-liquid medium, and aerobic shaking culture was carried out at 30° C. for 13 hours. Pseudomonas putida grown under the above-described conditions was inoculated in 100 ml of LB-liquid medium so that the initial bacterial cell concentration OD610=0.05, simultaneously, para-aminobenzoic acid was added so that the final concentrations thereof became 0, 100, 200, 300 mM, and aerobic shaking culture was carried out at 30° C. The growth of bacterial cells was determined by measuring absorbance of OD610.
as §2

[2] = test system: Streptomyces lividans 1326; experiment: as above; conditions: for growth of Streptomyces lividans 1326: aerobic shaking culture 28° C.
Procedure: as §1
Streptomyces lividans 1326 was applied to LB-agar plate, and was incubated at 28° C. for 24 hours in a dark place. Streptomyces lividans grown on the plate described above was inoculated in LB-liquid medium with a coil spring, and aerobic shaking culture was carried out at 28° C. for 24 hours. Streptomyces lividans grown under the above-described conditions was inoculated in 10 ml of LB-liquid medium with a coil spring so that the initial bacterial cell concentration OD610=0.2. Simultaneously, para-aminobenzoic acid was added so that the final concentrations thereof became 0, 100, 200, 300 mM, and aerobic shaking culture was carried out at 28° C. The growth of bacterial cells was determined by measuring OD610.
as §2

[3] = test system: Corynebacterium glutamicum strain R; experiment: Influence of para-aminobenzoic acid on glucose consumption rate (jar fermenter); conditions: 0, 50, 100 or 200 mM para-aminobenzoic acid, 5% glucose, 33° C., pH 7.0
Procedure: Influences of para-aminobenzoic acid on the glucose consumption rate were examined by a method described below, using Corynebacterium glutamicum strain R.
After a wild strain of Corynebacterium glutamicum was inoculated in 10 ml of the A-liquid medium containing 2% glucose, aerobic shaking culture was carried out at 33° C. for 18 hours. After the same strain was inoculated in 100 ml of the A-liquid medium containing 2% glucose, aerobic shaking culture was carried out at 33° C. for 12 hours. […]
Bacterial cells of the strain grown under the above-described conditions were collected by centrifugation (4° C., 5000×g, 10 minutes), and the bacterial cells thus obtained were washed with 0.9% sodium chloride aqueous solution once. […] The glucose concentration in the reaction solution was monitored by using a glucose sensor.

Escherichia coli JM109 = experiment: Growth inhibition by para-aminobenzoic acid in aerobic culture (OD610); conditions: aerobic shaking culture 37° C.
Procedure: as §1
Escherichia coli JM109 was applied to LB-agar plate [containing 1% polypeptone, 0.5% yeast extract, 0.5% sodium chloride, and 1.5% agar], and was incubated at 37° C. for 15 hours in a dark place. Escherichia coli grown on the plate described above was inoculated in LB-liquid medium [containing 1% polypeptone, 0.5% yeast extract, and 0.5% sodium chloride], and was subjected to aerobic shaking culture at 37° C. for 13 hours. Escherichia coli grown under the above-described conditions was inoculated in 100 ml of LB-liquid medium so that the initial bacterial cell concentration OD610=0.05. […] The growth of bacterial cells was determined by measuring OD610.
as §2

[4] = test system: Corynebacterium glutamicum strain R; experiment: as above; conditions: aerobic shaking culture 33° C.
Procedure: as §1
Corynebacterium glutamicum strain R was applied to an A-agar plate containing glucose at 4%, and was incubated at 33° C. for 15 hours in a dark place. One platinum loop of Corynebacterium glutamicum grown on the plate described above was inoculated in a test tube having therein 10 ml of the A-liquid medium containing of glucose at 4%, and was subjected to aerobic shaking culture at 33° C. for 15 hours. Corynebacterium glutamicum grown under the above-described conditions was inoculated in 10 ml of the A-liquid medium containing glucose at 4% so that the initial bacterial cell concentration OD610=0.05. […] The growth of bacterial cells was determined by measuring OD610.
as §2

SMILES: Nc1ccc(C(=O)O)cc1 [para-aminobenzoic acid, 4-aminobenzoic acid]
- growth of Saccharomyces cerevisiae W303 ([1]; 200 mM para-aminobenzoic acid): strongly inhibited
- growth of Saccharomyces cerevisiae W303 ([1]; 300 mM para-aminobenzoic acid): extremely strongly inhibited; also recorded: substantially completely inhibited
- growth of Pseudomonas putida S12 (Pseudomonas putida S12; 100 mM para-aminobenzoic acid, aerobic shaking culture 30° C.): substantially completely inhibited
- growth of Pseudomonas putida (Pseudomonas putida S12; 300 mM para-aminobenzoic acid): substantially completely inhibited
- growth of Streptomyces lividans 1326 ([2]; 100 mM para-aminobenzoic acid): significantly inhibited
- growth of Streptomyces lividans 1326 ([2]; 200 mM para-aminobenzoic acid): substantially completely inhibited
- growth of Streptomyces lividans ([2]; 300 mM para-aminobenzoic acid): substantially completely inhibited
- saccharide (glucose) consumption rate of Corynebacterium glutamicum [3]: no substantial decrease
- growth of Escherichia coli JM109 (Escherichia coli JM109; 100 mM para-aminobenzoic acid): significantly inhibited
- growth of Escherichia coli JM109 (Escherichia coli JM109; 300 mM para-aminobenzoic acid): substantially completely inhibited
- growth of Corynebacterium glutamicum strain R ([4]; 300 mM para-aminobenzoic acid): able to grow
- growth of Corynebacterium glutamicum ([4]; 400 mM para-aminobenzoic acid): able to grow
